# Experimental data taken from patent EP0366451A2, “The use of oxidized polyamines, especially NN'-Bis-(3-propionaldehyde)-1-4-diaminobutane (sperminedialdehyde) as immunosuppressive agents” (ORTHO PHARMACEUTICAL CORPORATION, priority 1988, dated 1990).
# Columns and labels:
# L1210/CPA cells = test: L1210/CPA cell proliferation ([3H]-thymidine incorporation); type: cell-based, Murine
# Protocol: Murine lymphocytic leukemia cell lines, L1210/CPA and L1210/0 (als. known as Le/CPA and Le/0) were kindly provided by Dr. F. Struck, Southern Research Institute, Birmingham, AL. Cells were grown in RPMI-1640, supplemented with 10% horse serum, 100 units/ml penicillin and 100 µg/ml streptomycin. The cultures were incubated at 37°C in a humidified atmosphere with 5% CO₂ in air. Bone marrow cells were flushed from femurs of mice with RPMI-1640, using a tuberculin syringe fitted with a 25 gauge meedle. For spleen cells, spleens were removed and passed through a fine wire mesh to get a single homogenous cell suspension. In either case, cells were centrifuged, washed twice and resuspended in the drug exposure medium (see below). Cell viability was determined by trypan blue exclusion and the cell suspension was diluted to the desired concentration.
# Murine leukemic cells and bone marrow/spleen cells were treated with SDA (1 x 10^-6 M to 5 x 10⁻⁵ M) in RPMI-1640 or PBS based solution. Wherever mentioned, cells were pretreated with DEAB (10-30 µM) for 30-60 min at 37°C and then exposed to SDA.
# For [³H]-thymidine incorporation, drug or vehicle treated bone marrow or spleen cells were plated in RPMI-1640, containing 10% fetal bovine serum, 10 µM β-mercaptoethanol, 25 mM HEPES and 2 mM glutamine. Con-A (4 µg/ml and […]) was used as mitogens for bone marrow and spleen cells. […]
# [1] = target: T1, S-Adenosylmethionine Decarboxylase (AdoMet DC) (Mus musculus, UniProt P0DMN7); test: AdoMet DC inhibition in L1210 cell supernatants ([14C]CO2 release); type: biochemical, Murine
# T1 construct: endogenous in cells; host or cells: murine leukemic L1210 cells (supernatant)
# T1 sequence (P0DMN7 68-334 limits assumed): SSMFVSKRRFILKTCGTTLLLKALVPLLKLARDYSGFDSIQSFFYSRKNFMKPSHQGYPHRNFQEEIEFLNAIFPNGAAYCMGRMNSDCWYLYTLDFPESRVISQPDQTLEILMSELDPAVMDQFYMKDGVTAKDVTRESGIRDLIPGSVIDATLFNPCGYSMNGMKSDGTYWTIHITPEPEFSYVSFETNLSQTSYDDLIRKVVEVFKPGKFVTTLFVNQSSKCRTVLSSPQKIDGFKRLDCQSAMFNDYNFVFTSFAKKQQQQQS
# T1 sequence (P0DMN7 1-67 limits assumed): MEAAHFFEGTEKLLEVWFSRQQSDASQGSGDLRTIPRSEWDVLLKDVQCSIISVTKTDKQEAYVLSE
# Protocol: Murine leukemic L1210 cell supernatants were incubated with different concentrations of SDA or butyl dialdehyde, and AdoMet DC activity was estimated by monitoring the release of [¹⁴C] CO₂. Inhibition curves for both drugs were superimposable with IC₅₀ values of 0.12-0.13 x 10⁻³ M.
# (Lewis x BN) F1 rats = test: Graft vs. host reaction in rat (popliteal lymph node study); type: in vivo
# Protocol: (LewXBN) rats were injected i.v. daily for 8 days with different doses of spermine dialdehyde. On day 2, BN rat spleen cells were injected subcutaneously into the left foot pads of the (LewxBN)F1 rats. These rats were sacrificed in 7 days and weights of both left and right popliteal lymph nodes were removed. The difference in weight is plotted as a function of spermine dialdehyde concentrations used.
# Graft vs. host reaction in rats was measured by popliteal lymph node enlargement induced by reinjection of parental spleen cells into F1 recipients. (Lewis x BN) F1 rats were divided into groups of 10 and given daily IV injections of different doses of the test compound (spermine dialdehyde) or control preparation. Two days after the first injection, they received 9 x 10⁶ spleen cells from a parental Lewis strain (0.3 ml of a […] cell/ml preparation was injected under the skin of the ventral surface of each of the recipient's right hind foot). Injection of test compound and control article continued for 6 more days. On the seventh day, rats were sacrificed by CO₂ treatment. Both left and right politeal lymph nodes were removed and cleaned of any adhering tissue. The extent of enlargement was measured by weighing both left and right lymph nodes and differences between the two were calculated.
# Graft vs. host reaction was generated in the form of popliteal lymph node in F1 recipients by subcutaneous injection of parental spleen cells. Spermine aldehyde was administered intravenously starting 2 days before parental spleen cell injection and continued until the day of lymph node measurement. Increase in popliteal lymph node swelling was scored by difference in weight between test (left) and control (right) lymph node. […] This GVH reaction is a typical manifestation of MHC class II reaction involving allogenic T lymphocytes.
# C3H mice = test: Skin graft transplant (Balb/c skin onto C3H mice); type: in vivo
# Protocol: Spermine dialdehyde was administered s.c, right after transplantation and continued throughout the study. Cyclosporin A (CsA) was run along as a positive control.
smiles,measurement,setting,value
"O=CCCNCCCCNCCC=O [SDA, NN′-Bis-(3-propionaldehyde)-1-4-diaminobutane]",effect of DEAB pretreatment on cytotoxicity of SDA,L1210/CPA cells; DEAB (20 µM) pretreatment,potentiated the cytotoxicitty of SDA
same,IC50,"L1210/CPA cells; Mus musculus, L1210, [³H]-thymidine incorporation, read-out: mean IC₅₀",8.3 µM
same,inhibition of AdoMet DC (in words),[1]; Fig. 9 and Figure 10,inhibited both of the key enzymes
same,IC50,"[1]; Figure 9, inhibition curves superimposable, read-out: IC₅₀ values",120 to 130 µM
same,ED (maximum),"(Lewis x BN) F1 rats; Rattus norvegicus, iv, Figure 4, read-out: dose required to achieve maximum suppression of GVH reaction in vivo",5 mg/kg
same,minimal effective dose,"(Lewis x BN) F1 rats; Rattus norvegicus, intravenously or subcutaneously, read-out: dose effective to suppress graft vs. host reactions",5 to 10 mg/kg
same,GVH reaction (popliteal lymph node swelling),"(Lewis x BN) F1 rats; intravenous, daily, Figure 4",significantly suppressed the GVH reaction
same,skin graft survival,"C3H mice; SDA s.c., all 3 doses, especially 10 mg/kg and 20 mg/kg, Figure 6",prolonged skin graft survival
same,efficacy in skin graft experiments compared with CsA,"C3H mice; mouse, in vivo",more effective than a comparable dose of CsA
